US20260055103A1, “2,3,4,9-TETRAHYDRO-1H-PYRIDO[3,4-B]INDOLE DERIVATIVES AS ESTROGEN RECEPTOR MODULATORS FOR THE TREATMENT OF CANCER” (Olema Pharmaceuticals, Inc., priority 2022, published 2026)

Target: T1, estrogen receptor (Homo sapiens, UniProt P03372)
T1 construct: endogenous in cells; host or cells: ECC-1 cells
T1 sequence (P03372 1-595): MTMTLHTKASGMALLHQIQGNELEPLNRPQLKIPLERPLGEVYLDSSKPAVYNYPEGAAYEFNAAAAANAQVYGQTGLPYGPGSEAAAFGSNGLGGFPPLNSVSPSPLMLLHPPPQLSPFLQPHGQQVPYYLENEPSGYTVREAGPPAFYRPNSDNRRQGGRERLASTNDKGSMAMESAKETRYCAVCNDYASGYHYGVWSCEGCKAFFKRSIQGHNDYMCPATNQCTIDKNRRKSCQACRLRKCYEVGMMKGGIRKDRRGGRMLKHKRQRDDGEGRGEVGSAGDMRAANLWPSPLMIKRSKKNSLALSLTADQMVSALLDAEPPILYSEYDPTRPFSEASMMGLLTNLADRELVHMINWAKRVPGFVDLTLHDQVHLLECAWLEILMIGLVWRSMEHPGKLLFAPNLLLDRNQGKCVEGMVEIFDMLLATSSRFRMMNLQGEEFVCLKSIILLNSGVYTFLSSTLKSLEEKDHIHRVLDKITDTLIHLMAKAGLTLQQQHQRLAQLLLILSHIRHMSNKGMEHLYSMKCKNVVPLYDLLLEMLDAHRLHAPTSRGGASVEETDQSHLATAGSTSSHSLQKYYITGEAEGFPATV
Experiment: Alkaline phosphatase (AP) assay in ECC-1 cells, agonist mode (no E2) and antagonist mode (500 pM E2)
Format: cell-based
Conditions: 3 days, AP activity normalized to 500 pM E2 alone, agonist mode without E2, antagonist mode with 500 pM E2
In short: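 ECC-1 cells in hormone-depleted medium treated 3 days with compound alone (agonist mode) or with 500 pM E2 (antagonist mode). Alkaline phosphatase read by p-nitrophenyl phosphate hydrolysis, 40 min at 42° C, A405. Activity normalized to 500 pM E2 alone.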

| SMILES | Activity (estrogen receptor modulation, agonism and antagonism) |
| --- | --- |
| C[C@@H]1Cc2c([nH]c3ccccc23)[C@@H](c2ncc(CC3CN(CCCF)C3)s2)N1CC(C)(C)F [Example I-4, 2-[(1S,3R)-2-(2-fluoro-2-methylpropyl)-3-methyl-1H,2H,3H,4H,9H-pyrido[3,4-b]indol-1-yl]-5-{[1-(3-fluoropropyl)azetidin-3-yl]methyl}-1,3-thiazole] | + (estrogen receptor agonism having (i) at least 80% increase in the E2-normalized signal in the AP assay (agonist mode) and (ii) no more than 80% reduction in the E2-normalized signal in the AP assay (antagonist mode)) |
| CCCN1CC[C@@H](Cc2ncc([C@@H]3c4[nH]c5ccccc5c4C[C@@H](C)N3CC(F)(F)F)s2)C1 [Example I-49, 5-[(1S,3R)-3-methyl-2-(2,2,2-trifluoroethyl)-1,3,4,9-tetrahydropyrido[3,4-b]indol-1-yl]-2-[[(3S)-1-propylpyrrolidin-3-yl]methyl]thiazole] | + (estrogen receptor agonism having (i) at least 80% increase in the E2-normalized signal in the AP assay (agonist mode) and (ii) no more than 80% reduction in the E2-normalized signal in the AP assay (antagonist mode)) |
| C[C@@H]1Cc2c([nH]c3ccccc23)[C@@H](c2ccc(CC3CN(CCCF)C3)s2)N1CC(F)(F)C(F)F [Example I-27, (1S,3R)-1-(5-((1-(3-fluoropropyl)azetidin-3-yl)methyl)thiophen-2-yl)-3-methyl-2-(2,2,3,3-tetrafluoropropyl)-2,3,4,9-tetrahydro-1H-pyrido[3,4-b]indole] | ++ (estrogen receptor antagonism having (i) between 10% and 80% increase in the E2-normalized signal in the AP assay (agonist mode) and (ii) between 10% and 80% reduction in the E2-normalized signal in the AP assay (antagonist mode)) |
| C#CCN1CC(Cc2ccc([C@@H]3c4[nH]c5ccccc5c4C[C@@H](C)N3CC(C)(C)F)s2)C1 [Example I-58, (1S,3R)-2-(2-fluoro-2-methyl-propyl)-3-methyl-1-[5-[(1-prop-2-ynylazetidin-3-yl)methyl]-2-thienyl]-1,3,4,9-tetrahydropyrido[3,4-b]indole] | + (estrogen receptor agonism having (i) at least 80% increase in the E2-normalized signal in the AP assay (agonist mode) and (ii) no more than 80% reduction in the E2-normalized signal in the AP assay (antagonist mode)) |
| C[C@@H]1Cc2c([nH]c3ccccc23)[C@@H](c2sc(CC3CN(CCCF)C3)cc2F)N1CC(F)(F)CO [Example I-55, 2,2-difluoro-3-[(1S,3R)-1-[3-fluoro-5-[[1-(3-fluoropropyl)azetidin-3-yl]methyl]-2-thienyl]-3-methyl-1,3,4,9-tetrahydropyrido[3,4-b]indol-2-yl]propan-1-ol] | +++ (estrogen receptor antagonism (i) with pIC50 greater than 7.5 and at least a 10% reduction in the E2-normalized signal in the AP assay (antagonist mode); and no more than 10% increase in E2-normalized signal in the AP assay (agonist mode)) |
| C[C@@H]1Cc2c([nH]c3ccccc23)[C@@H](c2ccc(CC3CN(CCCF)C3)s2)N1CC(C)(C)F [Example I-2, 3-({5-[(1S,3R)-2-(2-fluoro-2-methylpropyl)-3-methyl-1H,2H,3H,4H,9H-pyrido[3,4-b]indol-1-yl]thiophen-2-yl}methyl)-1-(3-fluoropropyl)azetidine] | ++ (estrogen receptor antagonism having (i) between 10% and 80% increase in the E2-normalized signal in the AP assay (agonist mode) and (ii) between 10% and 80% reduction in the E2-normalized signal in the AP assay (antagonist mode)) |
| C[C@@H]1Cc2c([nH]c3ccccc23)[C@@H](c2ccc(CC3CN(CCCF)C3)s2)N1CC(F)(F)F [Example I-20, 1-(3-fluoropropyl)-3-({5-[(1S,3R)-3-methyl-2-(2,2,2-trifluoroethyl)-1H,2H,3H,4H,9H-pyrido[3,4-b]indol-1-yl]thiophen-2-yl}methyl)azetidine] | ++ (estrogen receptor antagonism having (i) between 10% and 80% increase in the E2-normalized signal in the AP assay (agonist mode) and (ii) between 10% and 80% reduction in the E2-normalized signal in the AP assay (antagonist mode)) |
| COCCCN1CC(Cc2ccc([C@@H]3c4[nH]c5ccccc5c4C[C@@H](C)N3CC(F)(F)CO)s2)C1 [Example I-53, 2,2-difluoro-3-[(1S,3R)-1-[5-[[1-(3-methoxypropyl)azetidin-3-yl]methyl]-2-thienyl]-3-methyl-1,3,4,9-tetrahydropyrido[3,4-b]indol-2-yl]propan-1-ol] | ++ (estrogen receptor antagonism having (i) between 10% and 80% increase in the E2-normalized signal in the AP assay (agonist mode) and (ii) between 10% and 80% reduction in the E2-normalized signal in the AP assay (antagonist mode)) |
| C[C@@H]1Cc2c([nH]c3ccccc23)[C@@H](c2cnc(N[C@H]3CN(CCCF)C[C@@H]3F)s2)N1CC(F)(F)CO [Example I-65, 2,2-difluoro-3-((1S,3R)-1-(2-(((3S,4S)-4-fluoro-1-(3-fluoropropyl)pyrrolidin-3-yl)amino)thiazol-5-yl)-3-methyl-1,3,4,9-tetrahydro-2H-pyrido[3,4-b]indol-2-yl)propan-1-ol] | + (estrogen receptor agonism having (i) at least 80% increase in the E2-normalized signal in the AP assay (agonist mode) and (ii) no more than 80% reduction in the E2-normalized signal in the AP assay (antagonist mode)) |
| C[C@@H]1Cc2c([nH]c3ccccc23)[C@@H](c2ncc(CC3CN(CCCF)C3)s2)N1CC(F)(F)F [Example I-34, 5-[[1-(3-fluoropropyl)azetidin-3-yl]methyl]-2-[(1S,3R)-3-methyl-2-(2,2,2-trifluoroethyl)-1,3,4,9-tetrahydropyrido[3,4-b]indol-1-yl]thiazole] | ++ (estrogen receptor antagonism having (i) between 10% and 80% increase in the E2-normalized signal in the AP assay (agonist mode) and (ii) between 10% and 80% reduction in the E2-normalized signal in the AP assay (antagonist mode)) |
| C[C@@H]1Cc2c([nH]c3ccccc23)[C@@H](c2ccc(CC3CN(CCCF)C3)s2)N1CC(F)(F)CF [Example I-23, (1S,3R)-1-(5-((1-(3-fluoropropyl)azetidin-3-yl)methyl)thiophen-2-yl)-3-methyl-2-(2,2,3-trifluoropropyl)-2,3,4,9-tetrahydro-1H-pyrido[3,4-b]indole] | ++ (estrogen receptor antagonism having (i) between 10% and 80% increase in the E2-normalized signal in the AP assay (agonist mode) and (ii) between 10% and 80% reduction in the E2-normalized signal in the AP assay (antagonist mode)) |
| C[C@@H]1Cc2c([nH]c3ccccc23)[C@@H](c2ncc(CC3CN(CCC(F)F)C3)s2)N1CC(F)F [Example I-35, 2-[(1S,3R)-2-(2,2-difluoroethyl)-3-methyl-1,3,4,9-tetrahydropyrido[3,4-b]indol-1-yl]-5-[[1-(3,3-difluoropropyl)azetidin-3-yl]methyl]thiazole] | ++ (estrogen receptor antagonism having (i) between 10% and 80% increase in the E2-normalized signal in the AP assay (agonist mode) and (ii) between 10% and 80% reduction in the E2-normalized signal in the AP assay (antagonist mode)) |
| CCCN1CC[C@@H](Cc2ncc([C@@H]3c4[nH]c5ccccc5c4C[C@@H](C)N3CC(C)(C)F)s2)C1 [Example I-47] | + (estrogen receptor agonism having (i) at least 80% increase in the E2-normalized signal in the AP assay (agonist mode) and (ii) no more than 80% reduction in the E2-normalized signal in the AP assay (antagonist mode)) |
| C[C@@H]1Cc2c([nH]c3ccccc23)[C@@H](c2ccc(CC3CN(CCCF)C3)s2)N1CC(F)(F)C(F)(F)F [Example I-28, (1S,3R)-1-(5-((1-(3-fluoropropyl)azetidin-3-yl)methyl)thiophen-2-yl)-3-methyl-2-(2,2,3,3,3-pentafluoropropyl)-2,3,4,9-tetrahydro-1H-pyrido[3,4-b]indole] | ++ (estrogen receptor antagonism having (i) between 10% and 80% increase in the E2-normalized signal in the AP assay (agonist mode) and (ii) between 10% and 80% reduction in the E2-normalized signal in the AP assay (antagonist mode)) |
| C[C@@H]1Cc2c([nH]c3ccccc23)[C@@H](c2cnc(N[C@H]3CCCN(CCCF)C3)s2)N1CC(F)(F)CO [Example I-66] | ++ (estrogen receptor antagonism having (i) between 10% and 80% increase in the E2-normalized signal in the AP assay (agonist mode) and (ii) between 10% and 80% reduction in the E2-normalized signal in the AP assay (antagonist mode)) |
| C#CCN1CC(Cc2ccc([C@@H]3c4[nH]c5ccccc5c4C[C@@H](C)N3CC(F)(F)CO)s2)C1 [Example I-60, 2,2-difluoro-3-[(1S,3R)-3-methyl-1-[5-[(1-prop-2-ynylazetidin-3-yl)methyl]-2-thienyl]-1,3,4,9-tetrahydropyrido[3,4-b]indol-2-yl]propan-1-ol] | ++ (estrogen receptor antagonism having (i) between 10% and 80% increase in the E2-normalized signal in the AP assay (agonist mode) and (ii) between 10% and 80% reduction in the E2-normalized signal in the AP assay (antagonist mode)) |
